Results: patent US5627194A, “Anti-viral guanidino-substituted compounds” (Allelix Biopharmaceuticals Inc., priority 1994, dated 1997)
One block for each molecule: values may come before it.

Experiments:
herpesvirus [1] = assay type: cell-based
Procedure: The therapeutic index of this compound, i.e. the ratio of its cytotoxicity to its viral toxicity, was determined to be 12.29. The following table illustrates results obtained in inhibition and cytotoxicity studies of herpesvirus replication by the compounds exemplified.

herpesvirus [2] = assay: Inhibition studies of herpesvirus replication by the compounds exemplified; assay type: cell-based; conditions: summary table, read-out: ED50 (the source's name)
Procedure: (§1) The following procedures were then used to determine inhibitory effects of the compound of example 1 on the replication of HSV-1, strain F. First, confluent monolayers of the African green monkey kidney cell line, Vero (ATCC 733-VR CCL 81) in 24 well cell culture plates were pretreated with specified concentrations (0 μM, 0.5 μM, 1 μM, 5 μM, 10 μM, 20 μM and 50 μM) of ALX-19 at 37° C., 5% CO2 for 24 hours. This was accomplished by diluting the stock solution of the test compound in growth medium (10% fetal bovine serum, 100 IU/ml penicillin, 100 μg/ml streptomycin and 0.02 mg/ml gentamicin in Dulbecco's MEM (DMEM)) used to overlay the monolayers.
(§2) After pretreatment with the test compound, the monolayers were overlaid with 0.1 ml of diluted virus stock at about 20 pfu/well. Virus was then allowed to absorb for 1 hours at 37° C. The virus inoculum was removed and the monolayers were overlaid with DMEM containing 2% FBS and the specified concentrations of the test compound. Virus was next allowed to replicate for 48 hours and then the monolayers were fixed and stained with a solution of 1% crystal violet in 70% ethanol:formalin:acetic acid (20:2:1). Finally, plaques (each representing a single infectious virus particule or plaque forming unit (PFU) were counted and checked microscopically. The results were as follows:
(§3) A procedure similar to that described in Example 3 was conducted to determine the anti-viral activity of the compound of example 2. In the case, however, the concentrations of the test compound used to pretreat the MRC-5 cells were 0 μM, 1 μM, 10 μM, 100 μM and 500 μM, respectively. The following results were obtain on infection and incubation of the treated cells:
The following table illustrates results obtained in inhibition and cytotoxicity studies of herpesvirus replication by the compounds exemplified.

HSV-1, strain F = assay: Plaque reduction assay, inhibition of HSV-1 strain F replication by the compound of example 1 (Vero cells); assay type: cell-based, herpes simplex virus type 1; conditions: for Plaque number: Vero, 24 h pretreatment, 48 h, untreated 19
Description: (§4) The present invention provides novel di-guanidino-substituted compounds having anti-herpesvirus activity. The term "anti-herpesvirus" as used herein refers to those compounds which inhibit replication of a member of the herpesvirus family as determined by conventional cell culture assay, such as the well established plaque reduction assay. In the context of the plaque reduction assay, for example, the anti-herpesvirus nature of a compound in accordance with the present invention is indicated by a reduction in plaque count, or a reduction in plaque size, following treatment of virally infected cells with the given compound, relative to a virally infected, untreated control.
The compound of example 1 was formulated as a 10 mM stock in water for in vitro and cell culture procedures. The stock was then diluted into buffers used for specific assays, or into cell culture media.
as §1
as §2, with “follows: […]” for “follows:”

herpes simplex virus = assay: Plaque reduction assay, inhibition of herpesvirus replication by the compound of example 2 (MRC-5 cells); assay type: cell-based; conditions: for Plaque number: untreated 19
Description: as §4, §1, §2
as §3, with “cells: […]” for “cells:”

- TI (herpesvirus [1]): ~ 350
- EC50 (herpesvirus [2]): ~50 µM
Compound: N=C(N)NCCCOC[C@H]1OCCC[C@@H]1OCCCNC(=N)N [Example 9, 4,6-di-O-propylguanidine-3-deoxy dihydro-D-glucal]

- IC50 (HSV-1, strain F; Human alphaherpesvirus 1, HSV-1 strain F, Vero cells, plaque reduction): 2.6 µM
- TI (herpesvirus [1]): 12.29
- EC50 (herpesvirus [2]): 2.6 µM
Compound: COC1CC[C@H](OCCCNC(=N)N)[C@@H](COCCCNC(=N)N)O1 (stereo partly drawn) [Example 1, Methyl-4,6-di-O-propylguanidine-2,3-dideoxy-α,β-D-erythro-hexoside]
- Plaque number (HSV-1, strain F; 0.5 μM, HSV-1 strain F): 18
- Plaque number (HSV-1, strain F; 1 μM, HSV-1 strain F): 16
- Plaque number (HSV-1, strain F; 5 μM, HSV-1 strain F): 6
- Plaque number (HSV-1, strain F; 10 μM, HSV-1 strain F): 4
- Plaque number (HSV-1, strain F; 20 μM, HSV-1 strain F): 1
- reduction in the replication of herpes simplex virus (HSV-1, strain F; concentration of more than 1 μM): significant reduction
- therapeutic index, ratio of cytotoxicity to viral toxicity (herpesvirus [1]): 12.29

- TI (herpesvirus [1]): 9.96
- EC50 (herpesvirus [2]): 2.5 µM
Compound: CCOC1CC[C@H](OCCCNC(=N)N)[C@@H](COCCCNC(=N)N)O1 (stereo partly drawn) [Example 5, ethyl-4,6-di-O-propylguanidine-2,3-dideoxy-hexoside]

- TI (herpesvirus [1]): 5.17
- EC50 (herpesvirus [2]): 6.45 µM
Compound: CC(C)OC1CC[C@H](OCCCCCNC(=N)N)[C@@H](COCCCCCNC(=N)N)O1 (stereo partly drawn) [Example 7, isopropyl-4,6-di-O-pentylguanidine-2,3-dideoxy-D-erythro-hexoside]

- TI (herpesvirus [1]): 17.28
- EC50 (herpesvirus [2]): 9.3 µM
Compound: CCOC1CC[C@H](OCCCCCNC(=N)N)[C@@H](COCCCCCNC(=N)N)O1 (stereo partly drawn) [Example 6, ethyl-4,6-di-O-pentylguanidine-2,3-dideoxy-hexoside]

- TI (herpesvirus [1]): > 50
- EC50 (herpesvirus [2]): 10.5 µM
Compound: N=C(N)NCCCOC[C@H]1OC(OCCCNC(=N)N)CC[C@@H]1OCCCNC(=N)N (stereo partly drawn) [Example 2, 1,4,6-tri-O-propylguanidine-2,3-dideoxy-hexoside]
- therapeutic index, ratio of cytotoxicity to viral toxicity (herpesvirus [1]): > 50
- Plaque number (herpes simplex virus; 0.5 μM, MRC-5 cells): 18
- Plaque number (herpes simplex virus; 1 μM, MRC-5 cells): 16
- Plaque number (herpes simplex virus; 5 μM, MRC-5 cells): 11
- Plaque number (herpes simplex virus; 10 μM, MRC-5 cells): 9
- Plaque number (herpes simplex virus; 20 μM, MRC-5 cells): 6
- Plaque number (herpes simplex virus; 50 μM, MRC-5 cells): 5
- EC50 (herpes simplex virus; MRC5, MRC-5 cells, plaque reduction, read-out: ED50 (the source's name)): 10.5 µM
- reduction in the replication of herpes simplex virus (herpes simplex virus; concentration of 1 μM or more): significant reduction

- TI (herpesvirus [1]): 31.22
- EC50 (herpesvirus [2]): 10.8 µM
Compound: N=C(N)NCCCOC[C@H]1OC(OCCO)CC[C@@H]1OCCCNC(=N)N (stereo partly drawn) [Example 10, hydroxyethyl-4,6-di-O-propylguanidine-2,3-dideoxy-hexoside]

- TI (herpesvirus [1]): > 20
- EC50 (herpesvirus [2]): 10 µM
Compound: CCOCCOCCOC1CC[C@H](OCCCNC(=N)N)[C@@H](COCCCNC(=N)N)O1 (stereo partly drawn) [Example 8, (ethoxy-ethoxy-ethyl)-4,6-di-O-propylguanidine-2,3-dideoxy-d-erythrohexoside]
